Consider one compound from patent US6479493B1, “Methods for treatment of type I diabetes” (Cell Pathways, Inc., priority 2001, dated 2002).

Each structure is given as a SMILES string. Where a name gives a salt, the structure may show the parent alone.

The target of series [1] is T1, cGMP binding sites of the GST-cGB-PDE5 fusion protein (Homo sapiens, UniProt O76074).
T1 construct: made in house; host or cells: E. coli BL21 (DE3)
Put plainly: cGMP binding assay with GST-cGB-PDE5 fusion protein. The note with it: 3H-cGMP 2 μM, 22° C., 1 hour. The source says: RT-PCR method is used to obtain the cGB domain of PDE5 with forward and reverse primers designed from bovine PDE5A cDNA sequence (McAllister-Lucas L. M. et al, J. Biol. Chem. 268, 22863-22873, 1993) and the selection among PDE 1-10 families. 5′-3′, Inc. kits for total RNA followed by oligo (dT) column purification of mRNA are used with HT-29 cells. […] It is then cloned into pGEX-5X-3 glutathione-S-ransferase (GST) fusion vector (Pharmacia Biotech )with tac promoter, and EcoRI and XhoI cut sites. The fusion vector is then transfected into E. Coli BL21 (DE3) bacteria (Invitrogen). The transfected BL21 bacteria is grown to log phase, and then IPTG is added as an inducer. The induction is carried at 20° C. for 24 hrs. The bacteria are harvested and lysed. The soluble cell lysate is incubated with GSH conjugated Sepharose 4B (GSH-Sepharose 4B). The GST-cGB-pDE5 fusion protein can bind to the GSH-Sepharose beads, and the other proteins are washed off from beads with excessive cold PBS.
Then, the mixture is transferred to Brandel MB-24 cell harvester with GF/B as the filter membrane followed by 2 washes with 10 mL of cold 5 mM potassium buffer(pH 6.8). The membranes are then cut out and transferred to scintillation vials followed by the addition of 1 mL of H2O and 6 mL of Ready Safe™ liquid scintillation cocktail to each vial. The vials are counted on a Beckman LS 6500 scintillation counter.
The quenching by filter membrane or other debris are also calibrated.

Series [2] has as its system rats. Put plainly: seven-day dose-range finding study in rats. The note with it: 7 days. It is filed as in vivo, rat.
The subject of series [3] is rats. Kind of series: acute toxicity study in rats. Particulars: rat, in vivo.
Series [4] relates to TNF-α secreted by TPA-induced U937 cells. Put plainly: TNF-α immunoassay on media of TPA-treated U937 cells. The note with it: cell culture media (FIG. 12). In kind it is cell-based. The procedure:
One function of macrophages is to modulate the activity of other inflammatory cells through various cytokine molecules.
TNF-α levels in the cell culture media were determined by using the TNF-α Immunoassay from R&D Systems (Cat. #DTA50) according to the manufacturer's protocol.

The test system of series [5] is PDE4. Put plainly: PDE inhibition, similar protocols. It is filed as biochemical.
The subject of series [6] is dogs. Kind of series: acute / seven-dose toxicity in dogs. Particulars: dog, in vivo.
Description: Therefore, these dogs were subsequently administered seven consecutive doses of 1000 mg/kg/day.
Series [7] has as its system human patients. Kind of series: single, escalating dose human clinical safety trial. It is filed as in vivo. Particulars: humans, oral, 50, 100, 200 and 400 mg BID. The source says: One skilled in the art should recognize that any of the side effects observed in these safety studies occurred at very high doses, in excess of recommended human doses and are extremely minimal compared to what one would expect at similar doses of other proposed therapies.

Series [8] deals with PDE1. Kind of series: PDE inhibition, similar protocols. It is filed as biochemical.
Series [9] addresses PDE 5 (Homo sapiens, UniProt O76074). Put plainly: competitive binding (with cGMP) to PDE5.

Usually IC50 stands for the point on the concentration scale where inhibition reaches its midpoint. Low readings indicate higher potency, high ones lower potency.

Consider `CC1=C(CC(=O)NCc2ccccc2)c2cc(F)ccc2/C1=C\c1ccncc1` [Example 38, (Z)-5-Fluoro-2-methyl-(4-pyridylidene)-3-(N-benzyl)indenylacetamide Hydrochloride], for which, in series [1], the “competition with cGMP in binding to the cGMP binding sites of GST-cGB-PDE5” value was “does not bind to the cGMP-binding site of PDE5”. The results for the signs of toxicity entry in series [2] (50 mg/kg/day) and in [6] (1000 mg/kg) were “no observable signs of toxicity” and “no signs of toxicity”, respectively. In addition, the treatment-related effects entry is “limited to an increase in absolute and relative liver weights in female rats” in [2] (500 mg/kg/day); “labored breathing and/or abnormal respiratory sounds, decreased weights gains and food consumption in male rats, and increased liver weights in female rats” in series [2] (2000 mg/kg/day). Also, the “hematology, blood chemistry, microscopic pathology” value in series [2] (any dose level (50, 500, 2000 mg/kg/day)) was “No hematological or blood chemistry changes nor any microscopic pathology changes”. In addition, the body weight gain result in series [3] (ip, 1000 mg/kg) is given as “reduced body weight gain”. Also, in [3] (ip, 1000 mg/kg), the necropsy findings result is on record as “mesenteric adhesions seen in some animals”. Moreover, the body weight gains result in [3] (po, 2000 mg/kg) is on record as “slightly reduced”. In addition, the “level of TNF-α secreted” value in series [4] is listed as “significantly reduced”. In addition, the IC50 in series [5] was found to be 6 µM; in series [8], 3 µM. Further, the “signs of drug-related effects” value in series [6] (1000 mg/kg/day) is recorded as “At no time in either dosing phase were any obvious signs of drug-related effects observed”. In series [7], the side effects result is “no significant side effects at any dose”. Besides, in [9], the “competitive (with cGMP) binding to PDE 5” value is reported as “does competitively (with cGMP) bind to PDE 5”.
